Earlier results on two molecules are cited in patent publication US20210213132A1, “FORMULATIONS OF SN-38 WITH POLY(AMINO ACID) BLOCK POLYMERS” (Tyndall Formulation Services, LLC, priority 2020, published 2021).

For data set [1], the system named is carboxylesterases, specifically CES1 and CES2.
Data set [2] deals with metastatic colorectal cancer patients. The note with it: patients treated with irinotecan.
The next data set deals with T1, topoisomerase I (Homo sapiens, UniProt P11387).
T1 sequence (P11387 1-765): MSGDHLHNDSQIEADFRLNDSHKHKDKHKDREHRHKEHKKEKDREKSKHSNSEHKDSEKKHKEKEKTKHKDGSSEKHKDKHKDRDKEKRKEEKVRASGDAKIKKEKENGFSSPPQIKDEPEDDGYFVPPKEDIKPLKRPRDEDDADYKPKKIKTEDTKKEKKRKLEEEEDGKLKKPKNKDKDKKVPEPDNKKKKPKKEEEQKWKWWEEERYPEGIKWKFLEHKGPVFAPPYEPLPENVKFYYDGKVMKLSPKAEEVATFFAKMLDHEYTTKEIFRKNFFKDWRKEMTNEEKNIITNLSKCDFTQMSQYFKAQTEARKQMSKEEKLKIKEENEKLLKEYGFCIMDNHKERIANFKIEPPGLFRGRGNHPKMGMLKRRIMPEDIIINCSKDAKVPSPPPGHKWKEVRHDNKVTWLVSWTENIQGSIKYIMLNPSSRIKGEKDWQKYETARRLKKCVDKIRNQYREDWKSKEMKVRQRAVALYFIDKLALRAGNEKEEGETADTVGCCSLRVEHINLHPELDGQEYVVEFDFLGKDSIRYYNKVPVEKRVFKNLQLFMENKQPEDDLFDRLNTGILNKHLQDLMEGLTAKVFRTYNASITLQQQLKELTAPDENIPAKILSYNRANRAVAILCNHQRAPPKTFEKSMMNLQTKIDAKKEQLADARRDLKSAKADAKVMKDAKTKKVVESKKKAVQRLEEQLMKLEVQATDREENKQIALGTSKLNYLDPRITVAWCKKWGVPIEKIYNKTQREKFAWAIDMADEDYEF
The note with it: SN-38 versus irinotecan.

Structures are written as SMILES. Like-named read-outs stand apart in the source and are kept apart here.

`CCc1c2c(nc3ccc(OC(=O)N4CCC(N5CCCCC5)CC4)cc13)-c1cc3c(c(=O)n1C2)COC(=O)[C@]3(O)CC` [Irinotecan]: in data set [1], the “Affinity of the carboxylesterases for irinotecan” value is “low”. Moreover, in data set [2] (UGT1A1 *1/*1 genotype), the “Percentage of patients experiencing asthenia” value is 25%, the “Percentage of patients experiencing diarrhea” value is reported as 17% and the “Percentage of patients experiencing neutropenia” value is reported as 15%. Also, in data set [2] (UGT1A1 *1/*28 genotype), the “Percentage of patients experiencing asthenia” value is listed as 38%, the “Percentage of patients experiencing diarrhea” value was 33% and the “Percentage of patients experiencing neutropenia” value is 27%. Besides, in data set [2] (UGT1A1 *28/*28 genotype), the “Percentage of patients experiencing asthenia” value is 70%, the “Percentage of patients experiencing diarrhea” value is 70% and the “Percentage of patients experiencing neutropenia” value is on record as 40%.

As to `CCc1c2c(nc3ccc(O)cc13)-c1cc3c(c(=O)n1C2)COC(=O)[C@]3(O)CC` [SN-38], the “Solubility in aqueous media” value is “extremely insoluble”. Also, on topoisomerase I, the “Potency relative to irinotecan” value is recorded as 100 to 1000 fold.
